In patent US9737077B2, “Method for controlling sexuality of hop” (priority 2011, dated 2017):
Entries after “also recorded” stand apart in the source; their conditions may differ. Read-outs that look alike come from different tables or passages of the source.

Experiments:
[1] = tested on: hop variety Kirin No. 2 (female plant); experiment: Forming a male flower on a female plant bred in a greenhouse (Part 3), different chemicals
Description: An over-wintering plant or strain of the hop variety “Kirin No. 2” was cultivated in the same manner as in Example 2.
Silver thiosulfate (STS) was prepared by mixing sodium thiosulfate pentahydrate and silver nitrate in a molar ratio of 8:1. An area to which water was applied was arranged as a control area.
Flower buds were observed from the beginning of July and the sexuality was determined from the mid-July.

[2] = tested on: Cannabis sativa; conditions: cited from earlier work
[3] = tested on: female plant of Momordica dioica; conditions: Non Patent Literature 7; cited from earlier work
[4] = tested on: hop female plant; conditions: spraying 500 ppm (Non Patent Literature 1); cited from earlier work

## O=[N+]([O-])[O-].[Ag+] [silver nitrate]
[1]; 8 mM, leaf application 4 times about every 10 days, greenhouse
  flower sexuality observed: the female flowers were predominantly observed but the male flowers were observed in part; also recorded: female flowers and male flowers
[1]; 16 mM, leaf application 4 times about every 10 days, greenhouse
  flower sexuality observed: male flowers were observed; also recorded: male flowers formed
[1]; 32 mM, leaf application 4 times about every 10 days, greenhouse
  flower sexuality observed: male flowers were observed; also recorded: male flowers formed
[1]; all treated areas (all concentrations applied), greenhouse
  condition of applied leaves and growth: the applied leaves were partially browned but continued growing
[2]; applied to a growing shoot tip (Non Patent Literature 8)
  flowers formed on main and lateral branches: an intersex flower, an incomplete male flower with few stamens or a complete male flower, together with female flowers, were formed
[3]
  flower formed on female plant: a hermaphrodite flower is formed

## silver thiosulfate complex [STS]
[1]; in vivo
  condition of applied leaves and growth: the applied leaves were partially browned but continued growing
  flower sexuality observed: the female flowers were predominantly observed but the male flowers were observed in part; also recorded: male flowers formed; also recorded: female flowers and male flowers
[2]; in vivo
  flowers formed on main and lateral branches: an intersex flower, an incomplete male flower with few stamens or a complete male flower, together with female flowers, were formed

## CC(Sc1ccccc1Cl)C(=O)[O-].[Na+] (stereo not drawn) [α (2-chlorophenylthio)propionic acid, sodium salt]
[4]
  flower formed on hop female plant: a male flower was formed
